One test has as its system human PBMCs. Briefly: Proliferation and expansion of PBMC subpopulations in culture. The class given is cell-based. An excerpt:
An essential feature of IL-7-mediated homeostatic lymphoid maintenance is the proliferation of naive T-cells, expanding both recent thymic emigrants and circulating TN clones to sustain the population and preserve a diverse TCR repertoire in the naive T-cell compartment. […] In the CD8+ population, Ki-67+ frequency reached a peak by day 7, declining slightly by day 16. […] The high Ki-67 background in untreated samples of Treg and NK cells may indicate a high basal turnover rate of these cell types in culture.
Data are shown as mean ± SEM. Flow cytometry gating data shown in S2 Fig.
On days 3, 7, 16, and 30, cell aliquots were taken and analyzed by flow cytometry of CD8+ T naïve and memory populations. (A) Schematic of the putative differentiation pathway of the memory T cell compartment. (B) differential gating of naïve and early memory (Tscm) subpopulations. (C) Cell counts of treated and untreated memory subpopulations over time. (D) Stacked bar representation of changes in total memory T cell subpopulations over time. […] Data are shown as mean ± SEM. Detailed gating information is provided in S4 Fig.
Frozen human PBMCs from 5 healthy donors (Stemcell Technologies, Cat# 70025.2, Lot numbers 2108409012, 2109407009, 210680104C, 210680801C, 211280501C, 220781802C) were thawed and rested overnight at 37°C, 5% CO2 in CTS™ OpTmizer™ T-Cell Expansion SFM (ThermoFisher Scientific Cat# A1048501). […] At indicated time points, cell aliquots were taken, and cell surface staining was performed using antibodies shown in S3 Table followed by viability dye staining. For Ki-67 and FoxP3 staining, surfaced stained cells were fixed and permeabilized according to the manufacturer’s instructions and analyzed immediately using the Novocyte Advanteon instrument (Agilent). The data were analyzed using FlowJo software. Fluorescence Minus One (FMO) controls were used to draw gates. Percentages of Ki-67+ cell populations were expressed as average ± SEM. Memory T-cells are as follows: Tn (CD45RA+CCR7+CD28+CD95-), Tscm (CD45RA+CCR7+CD28+CD95+), Tem (CD45RA-CCR7-), Tcm (CD45RA-CCR7+), and Temra (CD45RA+CCR7-). To count cells per well, at each assay time point 50 μL of the cells were taken from each well and incubated with 200 μL of the viability dye solution. The NovoCyte Advanteon flow cytometer was set to analyze precisely 50 μL ([…] original culture volume), which allowed the calculation of the absolute live cell counts. Because the culture volumes change over time due to splitting and removal, dilution factors were considered when calculating the total number of cells.

Another test deals with T1, IL-2/15Rβγc receptor (Homo sapiens, UniProt P31785).
T1 construct: pcDNA3.1 expression vector encoding full-length IL-2Rβ, IL-7Rα, IL-9Rα, or IL-21Rα; TF-1 cells naturally express γc and IL-4Rα; expressed in transfected cells
T1 sequence (P31785 23-369): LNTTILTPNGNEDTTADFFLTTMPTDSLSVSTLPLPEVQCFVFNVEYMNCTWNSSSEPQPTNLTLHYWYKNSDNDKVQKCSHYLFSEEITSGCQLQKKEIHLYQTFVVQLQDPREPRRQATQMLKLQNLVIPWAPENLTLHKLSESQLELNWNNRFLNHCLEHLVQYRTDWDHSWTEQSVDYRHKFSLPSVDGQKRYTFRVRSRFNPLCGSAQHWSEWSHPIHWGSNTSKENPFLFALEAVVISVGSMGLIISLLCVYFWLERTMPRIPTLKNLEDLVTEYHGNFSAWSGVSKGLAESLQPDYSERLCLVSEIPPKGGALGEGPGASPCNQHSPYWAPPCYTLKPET
Briefly: IL-15-induced STAT activation in TF-1 cells expressing IL-2/15Rβ. In kind it is cell-based. The note with it: IL-15 at ~EC75; up to 10 μM MDK1472 or 5 μM MDK-703. As to the method:
There is no detectable effect of the novel agonists on the activation of any of the other receptors of the γc family.
Cells were deprived of growth factors by overnight incubation at 5×10^5 cells/mL in starvation medium (RPMI 1640 + 4.5 g/L glucose + 0.2% FBS + 2 mM L-glutamine + 1 mM NaPyr + 10 mM HEPES + 0.5x penicillin-streptomycin with no cytokine supplement) in T75 flasks. For assays, cells were plated in 96-well V-bottom plates at 2×10^5 cells/well. Three-fold serial dilutions in starvation medium of the test compounds or cytokine were added to the cells and incubated for 30 min at 37°C. Following incubation, cell extracts were prepared by adding a mixture of 10x Cell Lysis Buffer (Cell Signaling Technology Cat# 9803) and 100x HALT Phosphatase and Protease Inhibitor Cocktail (Thermo Fisher Cat# 78442) directly to the wells. The plates were agitated at 25°C for 5 min to prepare cell extracts for immediate use or to be stored at -80°C until assay. […]
TF-1-derived lines separately expressing each gamma common family private receptor were starved overnight at 5x10^5 cells/mL. The following day, the cells were counted and plated at 2x10^6 cells/well in 96-well plates. […] Cell extracts were prepared and analyzed for pSTAT3, pSTAT5, or pSTAT6 accumulation with Pathscan pSTAT ELISA kits as described above.

Bridge positions count the residues as written; N and C are the ends. Ends that are not written are not given here.

Here are results for two substances from PMC10597491 (PLOS ONE, 2023).

Take IL-7: human IL-7 cytokine (Peprotech): the “CD4+ and CD8+ maximal counts over day 1 baseline” value with human PBMCs (between days 7 and 16) is 5 fold. Moreover, the “CD8+ Tscm cell number increase” value in the test on human PBMCs (day 30, 100 nM MDK-703 or 1 nM IL-7, untreated 5-fold) turned out to be 1300 fold. The “CD8+ T-cell number, increase over baseline” value with human PBMCs (day 30 in culture, 100 nM MDK-703 or 1 nM IL-7, 5 donors) was 5.2 fold. The “CD8+ Temra expansion” value in the test with human PBMCs (over 30 days) stood at 7 fold.

Consider “Ac-GWGIPWCTLDPGSLQCAWLGKHGGGGSGGVVCQDWEGVELCWQGG (disulfide 7-16, 32-41) [MDK1472]”, for which the “inhibition of IL-15 activation” value against IL-2/15Rβγc receptor is on record as “neither MDK1472 nor MDK-703 exhibit inhibition”.
